Reference: the supplement of paper PMC11424490

Experiments:
SW837 = test: combination cScore with adagrasib (Bliss gap around IC50) (%PoC); higher = stronger additive effect
Protocol: (§1)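 Combination screen of 179 inhibitors with the KRAS G12C inhibitor adagrasib (MRTX849) in dose matrices, CellTiter-Glo readout in NCI-H2122 (72 h), SW837 (144 h) and NCI-H358 cells. The cScore is the mean Bliss-independence gap (expected minus observed viability, in %PoC) over a 3x3 field around the IC50s of both drugs. Positive means additive, and >~10 is stated as clear additive.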

NCI-H2122 = test: as above
Protocol: as §1

Compound: CCc1cnn2c(NCc3ccc[n+]([O-])c3)cc(N3CCCC[C@H]3CCO)nc12 + C=C(F)C(=O)N1CCN(c2nc(OC[C@@H]3CCCN3C)nc3c2CCN(c2cccc4cccc(Cl)c24)C3)C[C@@H]1CC#N [adagrasib]
- combination cScore with adagrasib (SW837): 0.92
- combination cScore with adagrasib (NCI-H2122): -0.08

Compound: Cc1ccc(Nc2nccc(N(C)c3ccc4c(C)n(C)nc4c3)n2)cc1S(N)(=O)=O [Pazopanib] + C=C(F)C(=O)N1CCN(c2nc(OC[C@@H]3CCCN3C)nc3c2CCN(c2cccc4cccc(Cl)c24)C3)C[C@@H]1CC#N [adagrasib]
- combination cScore with adagrasib (SW837): -7.8
- combination cScore with adagrasib (NCI-H2122): -6.25

Compound: CNC(=O)c1cc(Oc2ccc(NC(=O)Nc3ccc(Cl)c(C(F)(F)F)c3)c(F)c2)ccn1 [Regorafenib] + C=C(F)C(=O)N1CCN(c2nc(OC[C@@H]3CCCN3C)nc3c2CCN(c2cccc4cccc(Cl)c24)C3)C[C@@H]1CC#N [adagrasib]
- combination cScore with adagrasib (SW837): -1.71
- combination cScore with adagrasib (NCI-H2122): -3.41

Compound: C[C@]12CC[C@@H]3c4ccc(O)cc4C[C@@H](CCCCCCCCC[S+]([O-])CCCC(F)(F)C(F)(F)F)[C@H]3[C@@H]1CC[C@@H]2O (stereo partly drawn) [Fulvestrant] + C=C(F)C(=O)N1CCN(c2nc(OC[C@@H]3CCCN3C)nc3c2CCN(c2cccc4cccc(Cl)c24)C3)C[C@@H]1CC#N [adagrasib]
- combination cScore with adagrasib (SW837): 2.82
- combination cScore with adagrasib (NCI-H2122): 3.46

Compound: O=c1[nH]cc(F)c(=O)[nH]1 [Fluorouracil (5-FU)] + C=C(F)C(=O)N1CCN(c2nc(OC[C@@H]3CCCN3C)nc3c2CCN(c2cccc4cccc(Cl)c24)C3)C[C@@H]1CC#N [adagrasib]
- combination cScore with adagrasib (SW837): -0.87
- combination cScore with adagrasib (NCI-H2122): 9.62

Compound: CO[C@H]1CC[C@H](n2c([C@@H]3CCCC(=O)N3c3ccc(F)c(F)c3)nc3cc(-c4c(C)noc4C)ccc32)CC1 [CCS1477] + C=C(F)C(=O)N1CCN(c2nc(OC[C@@H]3CCCN3C)nc3c2CCN(c2cccc4cccc(Cl)c24)C3)C[C@@H]1CC#N [adagrasib]
- combination cScore with adagrasib (SW837): 7.35
- combination cScore with adagrasib (NCI-H2122): -1.66

Compound: COc1ncc(-c2nc3c(n2C(C)C)[C@H](c2ccc(Cl)cc2)N(c2cc(Cl)cn(C)c2=O)C3=O)c(OC)n1 [HDM-201] + C=C(F)C(=O)N1CCN(c2nc(OC[C@@H]3CCCN3C)nc3c2CCN(c2cccc4cccc(Cl)c24)C3)C[C@@H]1CC#N [adagrasib]
- combination cScore with adagrasib (SW837): 3.06
- combination cScore with adagrasib (NCI-H2122): 1.48

Compound: Nc1ccn([C@@H]2O[C@H](CO)[C@@H](O)C2(F)F)c(=O)n1 [Gemcitabine] + C=C(F)C(=O)N1CCN(c2nc(OC[C@@H]3CCCN3C)nc3c2CCN(c2cccc4cccc(Cl)c24)C3)C[C@@H]1CC#N [adagrasib]
- combination cScore with adagrasib (SW837): -2.8
- combination cScore with adagrasib (NCI-H2122): -4.78

Compound: O=c1cc(N2CCOCC2)oc2c(-c3cccc4c3sc3ccccc34)cccc12 [NU-7441] + C=C(F)C(=O)N1CCN(c2nc(OC[C@@H]3CCCN3C)nc3c2CCN(c2cccc4cccc(Cl)c24)C3)C[C@@H]1CC#N [adagrasib]
- combination cScore with adagrasib (SW837): 11.6
- combination cScore with adagrasib (NCI-H2122): 6.81

Compound: CN[C@@H](C)C(=O)N[C@H](C(=O)N1CCC[C@H]1c1nc(C(=O)c2ccc(F)cc2)cs1)C1CCCCC1 [LCL161] + C=C(F)C(=O)N1CCN(c2nc(OC[C@@H]3CCCN3C)nc3c2CCN(c2cccc4cccc(Cl)c24)C3)C[C@@H]1CC#N [adagrasib]
- combination cScore with adagrasib (SW837): 1.58
- combination cScore with adagrasib (NCI-H2122): -1.85

Compound: CC(C)(C(=O)NCC(F)(F)C(F)(F)F)C(=O)N[C@@H]1C(=O)Nc2ccccc2-c2ccccc21 + C=C(F)C(=O)N1CCN(c2nc(OC[C@@H]3CCCN3C)nc3c2CCN(c2cccc4cccc(Cl)c24)C3)C[C@@H]1CC#N [adagrasib]
- combination cScore with adagrasib (SW837): 9.86
- combination cScore with adagrasib (NCI-H2122): 6.57

Compound: COc1ccccc1-c1cc(Nc2cccc(CS(N)(=O)=O)c2)ncn1 [LDC-067] + C=C(F)C(=O)N1CCN(c2nc(OC[C@@H]3CCCN3C)nc3c2CCN(c2cccc4cccc(Cl)c24)C3)C[C@@H]1CC#N [adagrasib]
- combination cScore with adagrasib (SW837): 3.49
- combination cScore with adagrasib (NCI-H2122): 5.11

Compound: CC1=C(/C=C/C(C)=C/C=C/C(C)=C/C(=O)O)C(C)(C)CCC1 [Tretinoin] + C=C(F)C(=O)N1CCN(c2nc(OC[C@@H]3CCCN3C)nc3c2CCN(c2cccc4cccc(Cl)c24)C3)C[C@@H]1CC#N [adagrasib]
- combination cScore with adagrasib (SW837): 2.87
- combination cScore with adagrasib (NCI-H2122): -2.19

Compound: Cc1ncc(NC(=O)c2cccc(C(F)(F)F)c2)cc1-c1cnc(OC2CCOCC2)c(N2CCOCC2)c1 [RAF-709] + C=C(F)C(=O)N1CCN(c2nc(OC[C@@H]3CCCN3C)nc3c2CCN(c2cccc4cccc(Cl)c24)C3)C[C@@H]1CC#N [adagrasib]
- combination cScore with adagrasib (SW837): 4.87
- combination cScore with adagrasib (NCI-H2122): 7.22
